Data taken from paper PMC12176268, “Structural Features and Photophysical and Antiproliferative Properties of Me2N‑pbt-Cycloplatinated Complexes with Picolinate Ligands” (Inorganic Chemistry, 2025).
Where two headings read alike, the source gives them in different places.

Tests used:
[1] = system: MDA-MB-231; assay: MTT cell viability assay on MDA-MB-231 cells, dark and 450 nm irradiation; format: cell-based, human; conditions: for EC50: MTT
From the text: (§1) (C∧N) cyclometalated Pt(II) complexes have been previously reported to have strong antiproliferative activities when associated with phenanthroline-based, diphosphine, acyclic diamino carbenes, or picolinate ligands. In particular, (Me2N-pbt)-cyclometalated platinum complexes have been previously reported by some of us to have antiproliferative properties in the micromolar range on a panel of cancer cell lines, prompting us to investigate the anticancer properties of complexes 1–4 in dark conditions and, considering their high quantum yield (ϕΔ) of ^1O2 generation, under irradiation conditions. Due to the poor solubility of the complexes in an aqueous environment, complexes 1–4 were first dissolved in DMSO and diluted in the culture media to reach a final concentration of 1% DMSO when incubated with the cells. All complexes were screened against the so-called “triple-negative” breast cancer cell line MDA-MB-231, lung adenocarcinoma cell line A549, and the noncancerous breast cell line MCF-10A for 72 h in dark conditions and under 5 min irradiation at 450 nm (see Experimental Section for details). The irradiation time was kept short to prevent light-induced toxicity of the energetic wavelength observed at longer irradiation times (data not shown). The measurement of the effective concentration at 50% (EC50) was carried out using the classical MTT assay, and the data are provided in Table .
(§2) In dark conditions, we could notice a strong influence of substituents on the picolinate ligands. […] This can be correlated with its poor stability in the culture medium mentioned above, which might reduce its cellular uptake. […] However, in dark conditions, no particular selectivity for cancer cells could be observed with similar activity measured against the noncancerous cell line MCF-10A. For the “light” experiments, the cells were preincubated with the complexes for 4 h in the dark, irradiated at 450 nm for 5 min, and then put back in the dark until 72 h. The photoactivity index (PI) values, defined as the ratio between the EC50 in dark conditions and the EC50 after irradiation for each cell line, are shown in Figure .
(§3) The human lung adenocarcinoma cell line A549 and human breast cancer cell line MDA-MB-231 were cultivated in DMEM (Dulbecco’s modified Eagle’s medium) containing GlutaMax I supplemented with 10% FBS at 37 °C in a humidified atmosphere and 5% CO2. The noncancerous cell line MCF-10A was maintained in DMEM:F12 (1:1) cell culture media, 5% heat-inactivated horse serum, supplemented with HEPES (20 mM), L-glutamine (2 mM), epidermal growth factor (20 ng/mL), hydrocortisone (500 ng/mL), cholera toxin (100 ng/mL), and insulin (10 μg/mL). Cell viability was evaluated by using a colorimetric method based on the tetrazolium salt MTT [3-(4,5-dimethylthiazol-2-yl)-2,5-diphenyltetrazolium bromide], which is reduced by viable cells to yield purple formazan crystals. Cells were seeded in 96-well plates at a density of 40000 cells/mL (100 μL per well). Stock solutions were prepared in DMSO for complexes 1–4 and in water for cisplatin. […] For dark experiments, after overnight attachment, a dilution series of the compounds was added to the medium, and the cells were incubated for a further 72 h. For the irradiated experiments, after overnight attachment, a dilution series of the compounds was added to the medium, and the cells were preincubated for 4 h. The cells were then irradiated at 450 nm for 5 min with a Kessil Lamp (power: 3 mW/cm^2, 1.13 × 10^–8 Einstein/s at 20 cm distance between the light source and 96-well plate) and the incubation was continued until 72 h. After 72 h, the medium was removed and the cells were incubated with MTT solution in PBS (10 μL of 5 mg/mL) for 2–3 h. The formed purple formazan crystals were dissolved in 100 μL of DMSO by thorough shaking, and the absorbance at 580 nm was read using a microplate reader (FLUOstar OPTIMA, BMG Labtech). Each test was performed with at least 3 replicates and repeated at least 3 times. […]

[2] = system: A549; assay: MTT cell viability assay on A549 cells, dark and 450 nm irradiation; format: cell-based, human; conditions: for EC50: MTT
From the text: as §1, §2, §3

[3] = system: MCF-10A; assay: MTT cell viability assay on noncancerous MCF-10A cells, dark and 450 nm irradiation; format: cell-based, human; conditions: for EC50: MTT
From the text: as §1, §2, §3

[4] = Singlet oxygen generation, NIR emission at 1274 nm versus phenalenone; format: physicochemical; conditions: aerated acetonitrile 5 × 10^–5 M, 298 K, excitation 365 nm, reference phenalenone
Method: In aerated DMSO solutions, complexes 1–3 display a fluorescence band only at ca 510 nm, attributed to ^1LL′CT/^1ILCT, due to easy quenching of the phosphorescence by oxygen. However, upon prolonged photoexcitation at 365 nm, a continuous enhancement of the phosphorescence band is observed. Simply irradiating with a hand UV–vis lamp, the initial blue-green emission gradually shifts to the orange enhanced emission. The phosphorescence increases its maximum intensity in ca 15 1, 8 2, or 12 min 3 (Figures and S23). […] This relatively rare behavior has been previously observed by us , and other groups, and is explained by the occurrence of a local sensitization caused by energy transfer from the low-energy triplet to ^3O2-producing singlet ^1O2, which is able to selectively react with the solvent creating a free oxygen microenvironment that switches-on a phosphorescence band due to ^3ILCT at 580 nm. The strong sensitivity of the phosphorescence emission in these complexes encourages us to determine their efficiency as ^1O2 sensitizers. The singlet oxygen generation of complexes 1–3 was examined in acetonitrile solution (5 × 10^–5 M) using a near-infrared detector upon excitation at 365 nm, detecting the characteristic emission profile of ^1O2 at λem ∼ 1274 nm (Figure ).

[5] = Stability in serum-free DMEM containing 5% DMSO by UV–vis; format: physicochemical; conditions: DMEM with 5% DMSO, 25 μM, 37 °C; for stability in serum-free DMEM, UV–vis spectral changes, first 4 h: dark or with 5 min irradiation at 450 nm
From the text: The stability of complexes 1–4 was then investigated in more biologically relevant media by UV–visible spectroscopy. First, the stability of the complexes was studied in phosphate-buffered saline (PBS) containing 5% DMSO (Figure S30). […] Only a decrease in the intensity of all bands was observed, which could be attributed to partial aggregation and/or precipitation. […] The stability of complexes 1–4 was next studied in serum-free DMEM cell culture containing 5% DMSO (Figure S31). […] This final species seemed to have spectral features similar to those observed for complex 4 (Figure S31A). […] The similarity of the spectral features of the transformed species in all cases seemed to point to the formation of a common species upon incubation in DMEM, which we tentatively attribute to the decoordination of the picolinate ligands with a substituent-dependent kinetics; the COOH group favored the release of the picolinate ligand, while both NH2 and OH substituents seemed to slow down this process.
The UV–vis spectra of complexes 1–4 were recorded in PBS:DMSO (95/5) and serum-free DMEM:DMSO (95/5) at a concentration of 25 μM on a Cary 50 spectrophotometer (Varian).

[6] = system: A549; parameters: method as in not given; conditions: previously reported by the authors, ref not given, cited from earlier work
[7] = system: HeLa; parameters: method as in not given; conditions: previously reported by the authors, ref not given, cited from earlier work
[8] = system: CT-DNA; assay: Interaction with CT-DNA by circular dichroism; format: binding, calf; conditions: 50 μM CT-DNA, 50 μM cisplatin, 37 °C, 24 h in the dark (positive control)
Method: Platinum(II) complexes, such as cisplatin, presenting exchangeable ligands are well known to interact with puric bases of DNA, leading to the formation of intra- and interstrand cross-links and in turn to transcription inhibition, cell cycle arrest, and ultimately cell death. Based on the reactivity in the cell culture medium, the interaction of complexes 1–4 and cisplatin with CT-DNA was investigated by circular dichroism (CD) spectroscopy after incubation at 37 °C for 24 h in the dark or for 4 h incubation and 5 min irradiation at 450 nm, followed by 20 h incubation, following a reported protocol. The CD spectrum of CT-DNA presents a positive peak at 280 nm, assigned to base stacking, and a negative peak at 245 nm, assigned to helicity.
A stock solution of calf thymus DNA (CT-DNA) was prepared in 5 mM TRIS·HCl, and 50 mM NaCl (pH 7.4). The concentration of nucleotides was assayed at 260 nm using ε = 6600 M^–1.cm^–1 (c = 3.38 mM). […] Circular dichroism spectra (238–340 nm, 5 scans) were recorded in a 1 cm path length cell on a J-815 CD spectrometer (JASCO) at 20 °C with 0.1 nm data pitch, 50 nm/min scan speed, and 1 nm bandwidth.

[9] = system: MDA-MB-231; parameters: method as in earlier work; conditions: 72 h, dark; footnote b: values taken from ref (number not given); cited from earlier work
[10] = system: A549; parameters: method as in earlier work; conditions: 72 h, dark; footnote b: values taken from ref (number not given); cited from earlier work
[11] = system: MCF-10A; parameters: method as in earlier work; conditions: 72 h, dark; footnote b: values taken from ref (number not given); cited from earlier work
[12] = Solubility (statements); format: physicochemical
[13] = 4 h preincubation, 5 min irradiation at 450 nm, then dark until 72 h, read-out: EC50 MDA-MB-231 light
[14] = 72 h incubation at 37 °C, dark, read-out: EC50 MDA-MB-231 dark
[15] = 4 h preincubation, 5 min irradiation at 450 nm, then dark until 72 h, read-out: EC50 A549 light
[16] = 72 h incubation at 37 °C, dark, read-out: EC50 A549 dark
[17] = 4 h preincubation, 5 min irradiation at 450 nm, then dark until 72 h, read-out: EC50 MCF-10A light
[18] = 72 h incubation at 37 °C, dark, read-out: EC50 MCF-10A dark

Row | Molecule | EC50 [1, 13] | EC50 [1, 14] | EC50 [2, 15] | EC50 [2, 16] | EC50 [3, 17] | EC50 [3, 18] | quantum yield (ϕΔ) of 1O2 [4] | stability in serum-free DMEM, UV–vis spectral changes, 24 h [5] | stability in serum-free DMEM, UV–vis spectral changes, first 4 h [5] | also measured
1 | [Pt(Me2N-pbt)(pic-κN,O)] [Complex 1] | 170 ± 50 nM | 500 ± 60 nM | 570 ± 30 nM | 1500 ± 100 nM | 300 ± 100 nM | 470 ± 50 nM | 13.6% | further evolved | first spectral modification | 
2 | [Pt(Me2N-pbt)(o-dpb)] |  |  |  |  |  |  |  |  |  | IC50 ([6]; 1 min of irradiation (396 nm), read-out: IC50 A549 upon irradiation): 830 nM; activity in the dark, A549 ([6]; dark): inactive; IC50 ([7]; 1 min of irradiation (396 nm), read-out: IC50 HeLa upon irradiation): 1500 nM; activity in the dark, HeLa ([7]; dark): inactive
3 | [Pt(Me2N-pbt)(3-NH2-pic-κN,O)] [Complex 2] | 260 ± 50 nM | 800 ± 200 nM | 1000 ± 200 nM | 1900 ± 400 nM | 400 ± 100 nM | 700 ± 200 nM | 17.4% | spectral features of both complexes changed | no spectral changes | 
4 | N.N.[Cl][Pt][Cl] [Cisplatin] |  |  |  |  |  |  |  |  |  | modification of the CD spectrum of CT-DNA [8]: decrease of the band at 245 nm and an increase of the band at 280 nm; EC50 [9]: 20400 ± 3400 nM; EC50 [10]: 1700 ± 500 nM; EC50 [11]: 2900 ± 800 nM
5 | [Pt(Me2N-pbt)(4-COOH-pic-κN,O)] [Complex 4] | 15900 ± 3600 nM | 42400 ± 4200 nM | > 100000 nM | > 100000 nM | 15000 ± 900 nM | 21700 ± 4200 nM |  |  | quantitative transformation | photoactivity index (PI), EC50 dark / EC50 after irradiation, MDA-MB-231 ([1]; 5 min irradiation at 450 nm): very limited phototoxicity; photoactivity index (PI), EC50 dark / EC50 after irradiation, A549 ([2]; 5 min irradiation at 450 nm): very limited phototoxicity; photoactivity index (PI), EC50 dark / EC50 after irradiation, MCF-10A ([3]; 5 min irradiation at 450 nm): very limited phototoxicity; solubility [12]: only soluble in DMSO
